Source: PubChem BioAssay (NCI)
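A five-concentration, 48-hour dose response in 96-well plates underlies each endpoint, interpolated linearly between surrounding concentrations. TGI: concentration producing complete growth inhibition.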

Assays:
Assay in all cases: growth of human tumour cells (NCI), 48 h
HCT-15 colon = test system: HCT-15 colon
SK-MEL-28 melanoma = test system: SK-MEL-28 melanoma
SK-MEL-5 melanoma = test system: SK-MEL-5 melanoma
MCF7 breast = test system: MCF7 breast
UACC-62 melanoma = test system: UACC-62 melanoma
SF-539 CNS = test system: SF-539 CNS
CAKI-1 renal = test system: CAKI-1 renal
NCI-H23 lung = test system: NCI-H23 lung
SK-MEL-2 melanoma = test system: SK-MEL-2 melanoma
SF-268 CNS = test system: SF-268 CNS
SK-OV-3 ovarian = test system: SK-OV-3 ovarian
OVCAR-5 ovarian = test system: OVCAR-5 ovarian
EKVX NSCLC = test system: EKVX NSCLC
SF-295 CNS = test system: SF-295 CNS
OVCAR-4 ovarian = test system: OVCAR-4 ovarian
OVCAR-8 ovarian = test system: OVCAR-8 ovarian
T-47D breast = test system: T-47D breast
RXF 393 renal = test system: RXF 393 renal
RPMI-8226 leukemia = test system: RPMI-8226 leukemia

Row | SMILES | TGI (HCT-15 colon) | TGI (SK-MEL-28 melanoma) | TGI (SK-MEL-5 melanoma) | TGI (MCF7 breast) | TGI (UACC-62 melanoma) | TGI (SF-539 CNS) | TGI (CAKI-1 renal) | TGI (NCI-H23 lung) | TGI (SK-MEL-2 melanoma) | TGI (SF-268 CNS) | TGI (SK-OV-3 ovarian) | TGI (OVCAR-5 ovarian) | TGI (EKVX NSCLC) | TGI (SF-295 CNS) | TGI (OVCAR-4 ovarian) | TGI (OVCAR-8 ovarian) | TGI (T-47D breast) | TGI (RXF 393 renal) | TGI (RPMI-8226 leukemia)
1 | O=C1SCC(O)=C1/C=N/Nc1nc2ccccc2o1 | > 100 µM | > 100 µM | 63.9 µM | > 100 µM | 46.1 µM | 40.8 µM | > 100 µM | 86.3 µM | > 100 µM | > 100 µM | 82.8 µM | > 100 µM | 96.1 µM | 72.4 µM | > 100 µM | 46.6 µM | 54.7 µM | 70.7 µM | –
2 | Clc1cccc(Cl)c1C1SCC2=Nc3ccccc3CN21 (stereo not drawn) | > 100 µM | 91.2 µM | 29.2 µM | 52.7 µM | > 100 µM | 32.9 µM | > 100 µM | 34.7 µM | – | > 100 µM | 50.6 µM | > 100 µM | 73.6 µM | 33.8 µM | > 100 µM | – | 85.1 µM | 56.6 µM | > 100 µM
3 | COc1ccc(OC)c2c1C(=O)C(Cl)=C(N1CCN(CCOCCO)CC1)C2=O | 18.4 µM | 30.9 µM | 31.3 µM | 15 µM | 15.5 µM | 32.8 µM | – | 21.6 µM | – | 29.5 µM | 34 µM | 37.3 µM | 35.5 µM | 32.9 µM | 32 µM | 30.9 µM | 13.1 µM | 33.4 µM | 26.5 µM
4 | CCOC(=O)NC(Nc1ccc(S(=O)(=O)Nc2ncccn2)cc1)(C(=O)OCC)C(F)(F)F (stereo not drawn) | > 100 µM | > 100 µM | > 100 µM | > 100 µM | > 100 µM | > 100 µM | > 100 µM | > 100 µM | > 100 µM | > 100 µM | > 100 µM | > 100 µM | > 100 µM | > 100 µM | > 100 µM | > 100 µM | > 100 µM | – | > 100 µM
5 | Cc1ccc(S(=O)(=O)OC2C3OC(C)(C)OC3OC2C(c2cc(O)c3c(c2O)C(=O)c2ccccc2C3=O)c2cc(O)c3c(c2O)C(=O)c2ccccc2C3=O)cc1 (stereo not drawn) | > 10 µM | > 10 µM | > 10 µM | > 10 µM | > 10 µM | > 10 µM | > 10 µM | > 10 µM | > 10 µM | > 10 µM | > 10 µM | > 10 µM | > 10 µM | > 10 µM | > 10 µM | > 10 µM | > 10 µM | – | > 10 µM
